Assay results reported in US20130324412A1, “N-ALKOXYAMIDES OF 6-(SUBSTITUTED PHENYL)-4-AMINOPICOLINATES AND 2-(SUBSTITUTED PHENYL)-6-AMINO-4-PYRIMIDINECARBOXYLATES AND THEIR USE AS SELECTIVE HERBICIDES FOR CROPS” (DOW AGROSCIENCES LLC, priority 2009, published 2013).

Tests used:
Type in all cases: in vivo
[1] = system: corn (Zea mays); experiment: Postemergence herbicidal activity in corn, crop; conditions: visual rating after 21 d, probit analysis, dose to kill or control 20 percent
Method: (§1) Seeds of corn and the desired weed species were planted in Sun Gro MetroMix 360 planting mixture, which typically has a pH of 6.0 to 6.8 and an organic matter content of about 30 percent, in plastic pots with a surface area of 95 cm^2. When required to ensure good germination and healthy plants, a fungicide treatment and/or other chemical or physical treatment was applied. The plants were grown for 7-21 d in a greenhouse with an approximate 15-h photoperiod which was maintained at about 23-29° C. during the day and 22-28° C. during the night. Nutrients and water were added on a regular basis and supplemental lighting was provided with overhead metal halide 1000-Watt lamps as necessary. The corn plants were utilized for testing when they reached the second true leaf stage. The weed species were utilized at the first or second true leaf stage.
(§2) A weighed amount, determined by the highest rate to be tested, of each test compound was dissolved in 4 mL of a 97:3 v/v mixture of acetone and DMSO to obtain concentrated stock solutions. […] The concentrated stock solutions obtained were diluted with 20 mL of an aqueous mixture containing acetone, water, isopropyl alcohol, DMSO, Atplus 411F crop oil concentrate, and Triton X-155 surfactant in a 48.5:39:10:1.5:1.0:0.02 v/v ratio to obtain spray solutions containing the highest application rates. […]
(§3) The treated plants and control plants were placed in a greenhouse as described above and watered by sub-irrigation to prevent wash-off of the test compounds. After 21 d, the condition of the test plants as compared with that of the untreated plants was determined visually and scored on a scale of 0 to 100 percent where 0 corresponds to no injury and 100 corresponds to complete kill. […]

[2] = system: lambsquarters (Chenopodium album); experiment: Postemergence herbicidal activity in corn, lambsquarters; conditions: corn test, visual rating after 21 d, probit analysis, dose to kill or control 80 percent
Method: as §1, §2, §3

[3] = system: winter oilseed rape (canola) (Brassica napus); experiment: Postemergence herbicidal activity in oilseed rape (canola), crop; design: unit not given here; conditions: visual rating after 21 d, probit analysis, dose to kill or control 20 percent
Method: as §1, with “oilseed rape (canola)” for “corn”, “MetroMix®” for “MetroMix”, “15-28” for “7-21”, “third or fourth” for “second”, “fourth” for “first or second”
(§4) A weighed amount, determined by the highest rate to be tested, of each test compound was dissolved in 4 mL of a 97:3 v/v mixture of acetone and DMSO to obtain concentrated stock solutions. […] The concentrated stock solutions obtained were diluted with 20 mL of an aqueous mixture containing acetone, water and Agri-Dex crop oil concentrate, in a 16.7:82.1:1.25 v/v ratio to obtain spray solutions containing the highest application rates. Additional application rates were obtained by serial dilution of 12 mL of the high rate solution into a solution containing 2 mL of 97:3 v/v mixture of acetone and DMSO and 10 mL of an aqueous mixture containing acetone, water and Agri-Dex crop oil concentrate, in a 16.7:82.1:1.25 v/v ratio to obtain ½×, ¼×, ⅛× and 1/16× rates of the high rate. Compound requirements are based upon a 12 mL application volume at a rate of 187 L/ha. Formulated compounds were applied to the plant material with an overhead Mandel track sprayer equipped with 8002E nozzles calibrated to deliver 187 L/ha over an application area of 0.503 m^2 at a spray height of 18 inches (43 cm) above the average plant canopy height. Control plants were sprayed in the same manner with the solvent blank.
(§5) The treated plants and control plants were placed in a greenhouse as described above and watered by sub-irrigation to prevent wash-off of the test compounds. After 21 d, the condition of the test plants as compared with that of the untreated plants was determined visually and scored on a scale of 0 to 100 percent where 0 corresponds to no injury and 100 corresponds to complete kill.
(§6) By applying the well-accepted probit analysis as described by J. Berkson in Journal of the American Statistical Society 1953, 48, 565, and by D. Finney in “Probit Analysis” Cambridge University Press (1952), the above data can be used to calculate GR20 and GR80 values, which are defined as growth reduction factors that correspond to the effective dose of herbicide required to kill or control 20 percent or 80 percent, respectively, of a target plant.

[4] = system: lambsquarters (Chenopodium album); experiment: Postemergence herbicidal activity in oilseed rape (canola), lambsquarters; design: unit: g ai/ha; conditions: oilseed rape (canola) test, visual rating after 21 d, probit analysis, dose to kill or control 80 percent
Method: as §1, with “oilseed rape (canola)” for “corn”, “MetroMix®” for “MetroMix”, “15-28” for “7-21”, “third or fourth” for “second”, “fourth” for “first or second”
as §4, §5, §6

Structure (SMILES) | ZEAMX GR20 [1] [g ai/ha] | CHEAL GR80 [2] [g ai/ha] | BRSNW GR20 [3] | CHEAL GR80 [4]
COc1c(Cl)ccc(-c2cc(N)c(Cl)c(C(=O)NOCC(C)C)n2)c1F [Compound 1, 4-amino-3-chloro-6-(4-chloro-2-fluoro-3-methoxyphenyl)-N-(2-methylpropoxy)picolinamide] | >35 | <4 | >70 | <8.75
CONC(=O)c1nc(-c2ccc(Cl)c(OC)c2F)cc(N)c1Cl [Compound 2, 4-Amino-3-chloro-6-(4-chloro-2-fluoro-3-methoxyphenyl)-N-methoxypicolinamide] | >35 | <4 | >70 | 22
